Counter-ions that a name gives are not always drawn. Like-named read-outs stand apart in the source and are kept apart here.
Columns and labels:
T47D cells = test: Cell-based assay: anti-proliferative activity, Cell Counting Kit-8, 72 hours (T47D); settings: Homo sapiens, T47D, 72 h
Method in brief: (§1)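 First, lysates underwent western blotting with anti-MELK antibody to establish expression. Next, cells went into 96-well plates. Then candidate inhibitors were added. Finally, viability was determined by CCK-8 at 72 h and IC50 computed.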

A549 cells = test: Cell-based assay: anti-proliferative activity, Cell Counting Kit-8, 72 hours (A549); settings: Homo sapiens, A549, 72 h, 72 hours
Method in brief: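 A549 cells seeded in 96-well plates and exposed to candidate inhibitors for 72 hours. Growth measured with Cell Counting Kit-8; IC50 values calculated from the dose response.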

22Rv1 cells = test: Cell-based assay: anti-proliferative activity, Cell Counting Kit-8, 72 hours (22Rv1); settings: Homo sapiens
DU4475 cells = test: Cell-based assay: anti-proliferative activity, Cell Counting Kit-8, 72 hours (DU4475); settings: Homo sapiens, DU-4475
HT-1197 cells = test: Cell-based assay: anti-proliferative activity, Cell Counting Kit-8, 72 hours (HT-1197, negative control without MELK expression); settings: Homo sapiens, HT1197, 72 h, 72 hours
Method in brief: as §1

MELK = MELK (Homo sapiens, UniProt Q14680); test: Kinase assay: MELK activity, phosphorylation of FITC-labeled histone H3 peptide measured by IMAP fluorescence polarization; format: biochemical; settings: read-out: IC50 (μM) (kinase assay)
Method in brief: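 Kinase reactions ran with or without test compound (final DMSO 1%) on a fluorescein-tagged H3 peptide. Progressive binding solution was added to terminate them. After a half-hour room-temperature incubation, polarization was measured.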

DU4475 = test: Cell-based assay: anti-proliferative activity, Cell Counting Kit-8, 72 hours (DU4475); settings: Homo sapiens, DU-4475, DU4475 cells
[1] = HT1197 cells (negative control)
[2] = MELK kinase assay, IMAP fluorescence polarization, 50 micro-M ATP
[3] = HT1197 cells (negative control, no MELK expression)
[4] = 50 micro-M ATP, FITC-labeled histone H3 peptide substrate, IMAP fluorescence polarization

MELK, sequence (Q14680 whole entry, looked up): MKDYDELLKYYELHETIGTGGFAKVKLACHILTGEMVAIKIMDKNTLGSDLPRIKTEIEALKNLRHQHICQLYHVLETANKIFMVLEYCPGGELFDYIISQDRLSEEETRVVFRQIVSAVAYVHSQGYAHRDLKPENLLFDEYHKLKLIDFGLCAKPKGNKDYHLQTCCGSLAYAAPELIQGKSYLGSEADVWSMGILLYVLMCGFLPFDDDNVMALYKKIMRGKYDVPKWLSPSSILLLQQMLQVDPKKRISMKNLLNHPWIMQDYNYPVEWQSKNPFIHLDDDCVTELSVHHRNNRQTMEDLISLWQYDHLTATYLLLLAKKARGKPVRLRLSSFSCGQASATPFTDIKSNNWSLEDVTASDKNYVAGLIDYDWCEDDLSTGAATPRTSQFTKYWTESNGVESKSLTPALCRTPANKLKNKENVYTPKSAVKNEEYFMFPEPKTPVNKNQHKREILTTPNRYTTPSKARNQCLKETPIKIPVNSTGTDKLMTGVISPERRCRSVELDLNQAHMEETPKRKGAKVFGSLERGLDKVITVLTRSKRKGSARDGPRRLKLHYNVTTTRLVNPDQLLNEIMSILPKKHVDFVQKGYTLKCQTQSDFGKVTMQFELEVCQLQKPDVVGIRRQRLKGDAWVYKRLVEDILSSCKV

Compound | IC50 (T47D cells) [µM] | IC50 (A549 cells) [µM] | IC50 (22Rv1 cells) [µM] | IC50 (DU4475 cells) [µM] | IC50 (HT-1197 cells; [1]) [µM] | IC50 (MELK; [2]) [µM] | IC50 (DU4475) [µM] | IC50 (MELK) [µM] | IC50 (HT-1197 cells; [3]) [µM] | IC50 (MELK; [4]) [µM]
CS(=O)(=O)c1cnc2ccc(-c3cc(Cl)c(O)c(Cl)c3)cc2c1N[C@H]1CC[C@H](CN2CCCC2)CC1 [Example 890, 2,6-dichloro-4-(3-(methylsulfonyl)-4-((1R,4R)-4-(pyrrolidin-1-ylmethyl)cyclohexyl)amino)quinolin-6-yl) phenol hydrochloride] | 1.3 | 1.1 | 0.94 | 0.35 | 3 |  |  |  |  | 
CN(C)C[C@H]1CC[C@H](Nc2c(C(=O)C(C)(C)C)cnc3ccc(-c4cc(Cl)c(O)c(Cl)c4)cc23)CC1 [Example 918, 1-(6-(3,5-dichloro-4-hydroxyphenyl)-4-((1R,4R)-4-((dimethylamino)methyl)cyclohexyl)amino)quinolin-3-yl)-2,2-dimethylpropan-1-one hydrochloride] | 3 | 5.5 | 6.6 | 3.2 | 10 |  |  |  |  | 
CC(=O)c1cnc2ccc(-c3cc(Cl)c(O)c(Cl)c3)cc2c1Nc1cncc(CCN2CCCC2)c1 [Example 873, 1-(6-(3,5-dichloro-4-hydroxyphenyl)-4-((5-(2-(pyrrolidin-1-yl)ethyl)pyridin-3-yl)amino)quinolin-3-yl)ethanone hydrochloride] | 100 | 0.35 |  | 0.17 | 100 | 0.0067 |  |  |  | 
O=C(c1cnc2ccc(-c3cc(Cl)c(O)c(Cl)c3)cc2c1Nc1cncc(CCN2CCCC2)c1)C1CC1 [Example 881, cyclopropyl(6-(3,5-dichloro-4-hydroxyphenyl)-4-((5-(2-(pyrrolidin-1-yl)ethyl)pyridin-3-yl)amino)quinolin-3-yl)methanone] | 100 | 0.15 |  | 0.078 | 100 | 0.0064 |  |  |  | 
CC(=O)c1cnc2ccc(-c3cc(F)c(O)c(Cl)c3)cc2c1Nc1ccc(S(=O)(=O)N2CCN(C)CC2)cc1 [Example 894, 1-(6-(3-chloro-5-fluoro-4-hydroxy-phenyl)-4-((4-((4-methylpiperazin-1-yl)sulfonyl)phenyl)amino)quinolin-3-yl)ethanone hydrochloride] | 1.5 | 100 |  | 100 | 63 | 0.039 |  |  |  | 
O=C(c1cnc2ccc(-c3cc(Cl)c(O)c(Cl)c3)cc2c1Nc1cnc(N2CCNCC2)nc1)C1CC1 [Example 497, cyclopropyl(6-(3,5-dichloro-4-hydroxyphenyl)-4-((2-(piperazin-1-yl)pyrimidin-5-yl)amino)quinolin-3-yl)methanone] | 0.052 | 0.12 |  |  |  |  | 0.056 | 0.0021 | 0.97 | 
O=C(c1cnc2ccc(-c3cc(F)c(O)c(Cl)c3)cc2c1Nc1ccc(Cn2ccnc2)cc1)C1CC1 [Example 489, (4-(4-((1H-imidazol-1-yl)methyl)phenylamino)-6-(3-chloro-5-fluoro-4-hydroxyphenyl)quinolin-3-yl)(cyclopropyl)methanone] | 1.1 | 1.4 |  |  |  |  | 0.97 | 0.019 | 5.1 | 
COc1cc(-c2ccc3ncc(C(=O)C4CC4)c(-c4ccc(N5CCN(C)CC5)cc4)c3c2)cc(Cl)c1O [Example 438, (6-(3-chloro-4-hydroxy-5-methoxyphenyl)-4-(4-(4-methylpiperazin-1-yl)phenyl)quinolin-3-yl)(cyclopropyl)methanone] | 0.39 | 0.25 |  |  |  |  | 0.49 |  | 6.5 | 0.018
COc1cc(-c2ccc3ncc([S+](C)[O-])c(N4CCC(CN(C)C)CC4)c3c2)cc(Cl)c1O (centres unmarked) [Example 468] | 0.93 | 1.4 |  |  |  |  | 0.93 | 0.0051 | 9.2 | 
COc1cc(-c2ccc3ncc(C(=O)C4CC4)c(Nc4ccc(CN)cc4)c3c2)cc(Cl)c1O [Example 506, (4-(4-(aminomethyl)phenylamino)-6-(3-chloro-4-hydroxy-5-methoxyphenyl)quinolin-3-yl)(cyclopropyl)methanone] | 0.15 | 0.18 |  |  |  |  | 0.13 | 0.0032 | 0.74 | 
CN(C)C[C@H]1CC[C@H](Nc2c(S(C)(=O)=O)cnc3ccc(-c4cc(F)c(O)c(Cl)c4)cc23)CC1 [Example 423] | 0.42 | 0.93 |  |  |  |  | 0.31 |  | 2.4 | 0.0063
C[S+]([O-])c1cnc2ccc(-c3ccc(O)c(Cl)c3)cc2c1N[C@H]1CC[C@H](N)CC1 (some centres unmarked) [Example 499] | 2.7 | 9.7 |  |  |  |  | 2.5 | 0.036 | 18 | 
COc1cc(-c2ccc3ncc(C(=O)C(C)C)c(N[C@H]4CC[C@H](N)CC4)c3c2)cc(Cl)c1O [Example 502, 1-(4-((trans-4-aminocyclohexyl)amino)-6-(3-chloro-4-hydroxy-5-methoxyphenyl)quinolin-3-yl)-2-methylpropan-1-one] | 0.045 | 0.1 |  |  |  |  | 0.041 | 0.007 | 0.31 | 
COc1cc(-c2ccc3ncc(C(C)=O)c(N[C@H]4CC[C@H](CN(C)C)CC4)c3c2)cc(Cl)c1O [Example 392] | 0.25 | 0.27 |  |  |  |  | 0.44 |  | 10 | 0.0034
CCOc1cc(-c2ccc3ncc(C(=O)C4CC4)c(N4CCC(CN(C)C)CC4)c3c2)cc(Cl)c1O [Example 457] | 0.22 | 0.14 |  |  |  |  | 0.21 |  | 2.4 | 0.0024
O=C(c1cnc2ccc(-c3cc(F)c(O)c(Cl)c3)cc2c1N1CCN(CCN2CCCC2)CC1)C1CC1 [Example 402, (6-(3-chloro-5-fluoro-4-hydroxyphenyl)-4-(4-(2-(pyrrolidin-1-yl)ethyl)piperazin-1-yl)quinolin-3-yl)(cyclopropyl)methanone] | 0.88 | 1.2 |  |  |  |  | 0.48 |  | 5.1 | 0.0058
NCc1ccc(Nc2c(C(=O)C3CC3)cnc3ccc(-c4cc(Cl)c(O)c(Cl)c4)cc23)cc1 [Example 507, {4-[4-(Aminomethyl)phenylamino]-6-(3,5-dichloro-4-hydroxyphenyl)quinolin-3-yl}(cyclopropyl)methanone] | 0.094 | 0.059 |  |  |  |  | 0.018 | 0.0038 | 0.58 | 
NC[C@H]1CC[C@H](Nc2c(C(=O)C3CC3)cnc3ccc(-c4cc(Cl)c(O)c(Cl)c4)cc23)CC1 [Example 495, {4-[trans-4-(Aminomethyl)cyclohexylamino]-6-(3,5-dichloro-4-hydroxyphenyl)quinolin-3-yl}(cyclopropyl)methanone] | 0.045 | 0.35 |  |  |  |  | 0.018 | 0.0029 | 3.9 | 
CN(C)C[C@H]1CC[C@H](Nc2c(S(C)(=O)=O)cnc3ccc(-c4cc(Cl)c(O)c(Cl)c4)cc23)CC1 [Example 420, 2,6-dichloro-4-(4-((1R,4R)-4-((dimethylamino)methyl)cyclohexylamino)-3-(methylsulfonyl)quinolin-6-yl)phenol] | 0.47 | 0.69 |  |  |  |  | 0.14 |  | 2.5 | 0.0023
C[S+]([O-])c1cnc2ccc(-c3cc(Cl)c(O)c(Cl)c3)cc2c1N[C@H]1CC[C@H](N)CC1 (some centres unmarked) [Example 491] | 7 | 10 |  |  |  |  | 2.9 | 0.0075 | 10 | 
C[S+]([O-])c1cnc2ccc(-c3cc(F)c(O)c(Cl)c3)cc2c1N[C@H]1CC[C@H](N)CC1 (some centres unmarked) [Example 498] | 10 | 10 |  |  |  |  | 2.8 | 0.046 | 10 | 
COc1cc(-c2ccc3ncc(C(=O)C4CC4)c(Nc4ccc(Cn5ccnc5)cc4)c3c2)cc(Cl)c1O [Example 490, (4-(4-((1H-imidazol-1-yl)methyl)phenylamino)-6-(3-chloro-4-hydroxy-5-methoxyphenyl)quinolin-3-yl)(cyclopropyl)methanone] | 0.78 | 0.68 |  |  |  |  | 0.86 | 0.014 | 5.8 | 
NC[C@H]1CC[C@H](Nc2c(C(=O)C3CC3)cnc3ccc(-c4cc(F)c(O)c(Cl)c4)cc23)CC1 [Example 501, {4-[trans-4-(Aminomethyl)cyclohexylamino]-6-(3-chloro-5-fluoro-4-hydroxyphenyl)quinolin-3-yl}(cyclopropyl)methanone] | 0.061 | 0.57 |  |  |  |  | 0.031 | 0.046 | 1.2 | 
CC(=O)c1cnc2ccc(-c3cc(Cl)c(O)c(Cl)c3)cc2c1Nc1ccc(S(=O)(=O)N2CCN(C)CC2)cc1 [Example 887, 1-(6-(3,5-dichloro-4-hydroxyphenyl)-4-((4-((4-methylpiperazin-1-yl)sulfonyl)phenyl)amino)quinolin-3-yl)ethanone hydrochloride] | 1.3 | 100 |  | 100 | 100 |  |  |  |  | 
